Test results as given in patent US8299073B2, “P38 MAP kinase inhibitors” (Respivert Ltd., priority 2008, dated 2012).
Read-outs that look alike come from different tables or passages of the source.

How the values were obtained:
[1] = biological target: T1, p38 MAPK alpha (MAPK14: Invitrogen) (Homo sapiens, UniProt Q16539); assay: Enzyme inhibition assay (FRET, Z-LYTE), p38 MAPK alpha, via activation of MAPKAP-K2; assay type: biochemical; settings: read-out: IC50 values p38α enzyme
T1 construct: purchased Invitrogen
T1 sequence (Q16539 whole entry): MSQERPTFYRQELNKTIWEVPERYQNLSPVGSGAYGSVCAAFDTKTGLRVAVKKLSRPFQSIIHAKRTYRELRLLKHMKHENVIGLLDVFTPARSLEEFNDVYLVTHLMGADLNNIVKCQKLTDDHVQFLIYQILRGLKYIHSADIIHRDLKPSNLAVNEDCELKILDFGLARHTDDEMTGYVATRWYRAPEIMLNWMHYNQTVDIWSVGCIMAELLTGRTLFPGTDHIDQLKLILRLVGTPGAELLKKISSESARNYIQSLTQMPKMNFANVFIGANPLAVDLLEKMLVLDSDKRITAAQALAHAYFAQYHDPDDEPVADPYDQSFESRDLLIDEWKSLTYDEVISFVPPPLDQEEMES

[2] = biological target: T2, recombinant, phosphorylated p38 MAPK gamma (MAPK12:Millipore) (Homo sapiens, UniProt P53778); assay: Enzyme inhibition assay (FRET, Z-LYTE), p38 MAPK gamma; assay type: biochemical; settings: read-out: IC50 values P38γ enzyme
T2 construct: purchased Millipore
T2 sequence (P53778 1-367): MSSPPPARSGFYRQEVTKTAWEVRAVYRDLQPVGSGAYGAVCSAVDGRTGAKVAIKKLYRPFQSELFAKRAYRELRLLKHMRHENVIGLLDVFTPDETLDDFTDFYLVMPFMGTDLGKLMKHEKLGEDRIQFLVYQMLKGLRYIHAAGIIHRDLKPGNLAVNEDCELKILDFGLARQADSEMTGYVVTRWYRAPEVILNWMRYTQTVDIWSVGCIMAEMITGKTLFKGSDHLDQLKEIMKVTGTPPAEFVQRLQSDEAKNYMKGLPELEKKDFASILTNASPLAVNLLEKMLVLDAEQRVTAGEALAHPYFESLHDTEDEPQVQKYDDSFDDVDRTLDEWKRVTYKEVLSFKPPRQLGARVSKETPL
Experimental: The enzyme inhibitory activity of compound was determined by fluorescence resonance energy transfer (FRET) using synthetic peptides labelled with both donor and acceptor fluorophores (Z-LYTE, Invitrogen). Briefly, recombinant, phosphorylated p38 MAPK gamma (MAPK12:Millipore) was diluted in HEPES buffer, mixed with compound at desired final concentrations and incubated for two hours at room temperature. The FRET peptide (2 μM) and ATP (100 uM) were next added to the enzyme/compound mixture and incubated for one hour. Development reagent (protease) was added for one hour prior to detection in a fluorescence microplate reader. The site-specific protease only cleaves non-phosphorylated peptide and eliminates the FRET signal. Phosphorylation levels of each reaction were calculated using the ratio of coumarin emission (donor) over fluorescein emission (acceptor) with high ratios indicating high phosphorylation and low ratios, low phosphorylation levels.

[3] = test system: LPS-induced TNFα release in differentiated U937 cells; assay: LPS-induced TNF alpha release in differentiated U937 cells; assay type: cell-based
Experimental: U937 cells, human monocytic cell line, were differentiated to macrophage-type cells by incubation with phorbol myristate acetate (PMA; 100 ng/ml) for 48 to 72 hours. Where appropriate, cells were pre-incubated with final concentrations of compound for 2 hrs. Cells were then stimulated with 0.1 μg/mL of LPS (from E. coli: O111:B4, Sigma) for 4 hrs, and the supernatant collected for determination of TNFα concentration by sandwich ELISA (Duo-set, R&D systems).

[4] = test system: LPS-induced TNFα release in THP-1 cells; assay: LPS-induced TNF alpha release in THP-1 cells; assay type: cell-based; settings: Homo sapiens
Experimental: THP-1, human monocytic cell line, was also used for this assay. THP-1 cells were stimulated with 1 μg/ml of LPS (from E. coli: O111:B4, Sigma) for 4 hrs, and the supernatant collected for determination of TNFα concentration.
THP-1 cells, a human monocytic cell line, were stimulated with 1 μg/ml of LPS (from E. coli; O111:B4, Sigma) for 4 hr and the supernatant collected for determination of TNFα concentration by sandwich ELISA (Duo-set, R&D systems). The inhibition of TNFα production was calculated at each concentration by comparison with vehicle control.

[5] = test system: Differentiated U937 cells; assay: MTT assay (loss of cell viability); assay type: cell-based, human; settings: loss of cell viability, 10 ug/ml
Experimental: Differentiated U937 cells were pre-incubated with compound for 4 hrs in 5% FCS or 10% FCS for 24 hrs and 72 hr. The supernatant was replaced with 200 ul of new media and 10 μL of MTT stock solution (5 mg/mL) added to each well. After 1 hr incubation, the media were removed, 200 μL of DMSO added to each well and the plates were shaken lightly for 1 hr prior to reading the absorbance at 550 nm.
The percentage loss of cell viability was calculated for each well relative to vehicle (0.5% DMSO)-treatment. Consequently an apparent increase in cell viability for drug treatment relative to vehicle is tabulated as a negative percentage.

[6] = Homo sapiens; read-out: R-EC50 values d-U937 cells
[7] = THP-1, LPS-induced TNFα release, read-out: IC50 values THP-1 cells

Row | Compound | IC50 [1] | IC50 [2] | EC50 [3, 6] | IC50 [4, 7] | MTT 4 hr [5] | MTT 24 hr [5] | EC50 ([3]; Homo sapiens, read-out: R-EC50 values d-U937 cells) | IC50 ([4]; THP-1, read-out: IC50 values THP-1 cells)
1 | Cc1ccc(-n2nc(C(C)(C)C)cc2NC(=O)Nc2ccc(OCc3ccnc(NC(=O)[C@@H]4COCCN4)c3)c3ccccc23)cc1 [Example 11, (S)-N-(4-((4-(3-(3-tert-Butyl-1-p-tolyl-1H-pyrazol-5-yl)ureido)naphthalen-1-yloxy)methyl)pyridin-2-yl)morpholine-3-carboxamide] | < 10 nM | < 5000 nM | < 10 nM | < 10 nM | − (− <30%) | − (− <30%) |  | 
2 | Cc1ccc(-n2nc(C(C)(C)C)cc2NC(=O)Nc2ccc(OCc3ccnc(NC(=O)N4CCN(C)CC4)c3)c3ccccc23)cc1 [Example 12, N-(4-((4-(3-(3-tert-Butyl-1-p-tolyl-1H-pyrazol-5-yl)ureido)naphthalen-1-yloxy)methyl)pyridin-2-yl)-4-methylpiperazine-1-carboxamide] | < 10 nM | < 500 nM |  |  | − (− <30%) | − (− <30%) | < 10 nM | < 10 nM
3 | Cc1ccc(-n2nc(C(C)(C)C)cc2NC(=O)Nc2ccc(OCc3ccnc(NC(=O)N4CCOCC4)c3)c3ccccc23)cc1 [Example 13, N-(4-((4-(3-(3-tert-Butyl-1-p-tolyl-1H-pyrazol-5-yl)ureido)naphthalen-1-yloxy)methyl)pyridin-2-yl)morpholine-4-carboxamide] | < 10 nM | < 500 nM | < 10 nM | < 500 nM | − (− <30%) | − (− <30%) |  | 
4 | COCCC(=O)Nc1cc(COc2ccc(NC(=O)Nc3cc(C(C)(C)C)nn3-c3ccc(C)cc3)c3ccccc23)ccn1 [Example 14, N-(4-((4-(3-(3-tert-Butyl-1-p-tolyl-1H-pyrazol-5-yl)ureido)naphthalen-1-yloxy)methyl)pyridin-2-yl)-3-methoxypropanamide] | < 10 nM | < 500 nM | < 10 nM | < 10 nM | − (− <30%) | − (− <30%) |  | 
5 | Cc1ccc(-n2nc(C(C)(C)C)cc2NC(=O)Nc2ccc(OCc3ccnc(NC(=O)CCCN(C)C)c3)c3ccccc23)cc1 [Example 16, N-(4-((4-(3-(3-tert-Butyl-1-p-tolyl-1H-pyrazol-5-yl)ureido)naphthalen-1-yloxy)methyl)pyridin-2-yl)-4-(dimethylamino)butanamide] | < 500 nM | < 500 nM | < 10 nM | < 10 nM | + (+ >30% at 10 ug/ml) | + (+ >30% at 10 ug/ml) |  | 
6 | Cc1ccc(-n2nc(C(C)(C)C)cc2NC(=O)Nc2ccc(OCc3ccnc(NC(=O)CCS(C)(=O)=O)c3)c3ccccc23)cc1 [Example 17, N-(4-((4-(3-(3-tert-Butyl-1-p-tolyl-1H-pyrazol-5-yl)ureido)naphthalen-1-yloxy)methyl)pyridin-2-yl)-3-(methylsulfonyl)propanamide] | < 10 nM | < 500 nM | < 10 nM | < 10 nM | − (− <30%) | − (− <30%) |  | 
7 | Cc1ccc(-n2nc(C(C)(C)C)cc2NC(=O)Nc2ccc(OCc3ccnc(NC(=O)N4CCN(S(C)(=O)=O)C4=O)c3)c3ccccc23)cc1 [Example 18, N-(4-((4-(3-(3-tert-Butyl-1-p-tolyl-1H-pyrazol-5-yl)ureido)naphthalen-1-yloxy)methyl)pyridin-2-yl)-3-(methylsulfonyl)-2-oxoimidazolidine-1-carboxamide] | < 500 nM | > 5000 nM | < 500 nM | < 10 nM | − (− <30%) | − (− <30%) |  | 
8 | Cc1ccc(-n2nc(C(C)(C)C)cc2NC(=O)Nc2ccc(OCc3ccnc(NC(=O)CN4CCCC4)c3)c3ccccc23)cc1 [Example 22, N-(4-((4-(3-(3-tert-Butyl-1-p-tolyl-1H-pyrazol-5-yl)ureido)naphthalen-1-yloxy)methyl)pyridin-2-yl)-2-(pyrrolidin-1-yl)acetamide] | < 10 nM | < 500 nM | < 10 nM | < 10 nM | − (− <30%) | − (− <30%) |  | 
9 | Cc1ccc(-n2nc(C(C)(C)C)cc2NC(=O)Nc2ccc(OCc3ccnc(NC(=O)CN4CCN(C)CC4)c3)c3ccccc23)cc1 [Example 23, N-(4-((4-(3-(3-tert-Butyl-1-p-tolyl-1H-pyrazol-5-yl)ureido)naphthalen-1-yloxy)methyl)pyridin-2-yl)-2-(4-methylpiperazin-1-yl)acetamide] | < 10 nM | < 500 nM | < 10 nM | < 10 nM | + (+ >30% at 10 ug/ml) | + (+ >30% at 10 ug/ml) |  | 
10 | COCCN1CCN(CC(=O)Nc2cc(COc3ccc(NC(=O)Nc4cc(C(C)(C)C)nn4-c4ccc(C)cc4)c4ccccc34)ccn2)CC1 [Example 24, N-(4-((4-(3-(3-tert-Butyl-1-p-tolyl-1H-pyrazol-5-yl)ureido)naphthalen-1-yloxy)methyl)pyridin-2-yl)-2-(4-(2-methoxyethyl)piperazin-1-yl)acetamide] | < 10 nM | < 500 nM | < 10 nM | < 10 nM | − (− <30%) | − (− <30%) |  | 
11 | CNCC(=O)Nc1cc(COc2ccc(NC(=O)Nc3cc(C(C)(C)C)nn3-c3ccc(C)cc3)c3ccccc23)ccn1 [Example 27, N-(4-((4-(3-(3-tert-Butyl-1-p-tolyl-1H-pyrazol-5-yl)ureido)naphthalen-1-yloxy)methyl)pyridin-2-yl)-2-(methylamino)acetamide] | < 500 nM | < 500 nM | < 10 nM | < 10 nM | − (− <30%) | − (− <30%) |  | 
12 | COc1ccc(CN(C)CC(=O)Nc2cc(COc3ccc(NC(=O)Nc4cc(C(C)(C)C)nn4-c4ccc(C)cc4)c4ccccc34)ccn2)cc1 [Example 28, N-(4-((4-(3-(3-tert-Butyl-1-p-tolyl-1H-pyrazol-5-yl)ureido)naphthalen-1-yloxy)methyl)pyridin-2-yl)-2-((4-methoxybenzyl)(methyl)amino)acetamide] | < 500 nM | < 5000 nM | < 10 nM | < 10 nM | − (− <30%) | − (− <30%) |  | 
13 | COCCSCC(=O)Nc1cc(COc2ccc(NC(=O)Nc3cc(C(C)(C)C)nn3-c3ccc(C)cc3)c3ccccc23)ccn1 [Example 29, N-(4-((4-(3-(3-tert-Butyl-1-p-tolyl-1H-pyrazol-5-yl)ureido)naphthalen-1-yloxy)methyl)pyridin-2-yl)-2-(2-methoxyethylthio)acetamide] | < 500 nM | < 500 nM | < 10 nM | < 10 nM | − (− <30%) | − (− <30%) |  | 
14 | COCCOCCSCC(=O)Nc1cc(COc2ccc(NC(=O)Nc3cc(C(C)(C)C)nn3-c3ccc(C)cc3)c3ccccc23)ccn1 [Example 30, N-(4-((4-(3-(3-tert-Butyl-1-p-tolyl-1H-pyrazol-5-yl)ureido)naphthalen-1-yloxy)methyl)pyridin-2-yl)-2-(2-(2-methoxyethoxy)ethylthio)acetamide] | < 500 nM | < 500 nM | < 10 nM | < 10 nM | − (− <30%) | − (− <30%) |  | 
15 | Cc1ccc(-n2nc(C(C)(C)C)cc2NC(=O)Nc2ccc(OCc3ccnc(NC(=O)CSCCN4CCOCC4)c3)c3ccccc23)cc1 [Example 31, N-(4-((4-(3-(3-tert-Butyl-1-p-tolyl-1H-pyrazol-5-yl)ureido)naphthalen-1-yloxy)methyl)pyridin-2-yl)-2-(2-morpholinoethylthio)acetamide] | < 500 nM | < 500 nM | < 10 nM | < 10 nM | − (− <30%) | + (+ >30% at 10 ug/ml) |  | 
16 | Cc1ccc(-n2nc(C(C)(C)C)cc2NC(=O)Nc2ccc(OCc3ccnc(NC(=O)CS(=O)(=O)CCN4CCOCC4)c3)c3ccccc23)cc1 [Example 32, N-(4-((4-(3-(3-tert-Butyl-1-p-tolyl-1H-pyrazol-5-yl)ureido)naphthalen-1-yloxy)methyl)pyridin-2-yl)-2-(2-morpholinoethylsulfonyl)acetamide] | < 10 nM | < 500 nM | < 10 nM | < 500 nM | − (− <30%) | − (− <30%) |  | 
17 | COCCN(CCOC)CC(=O)Nc1cc(COc2ccc(NC(=O)Nc3cc(C(C)(C)C)nn3-c3ccc(C)cc3)c3ccccc23)ccn1 [Example 33, 2-(Bis(2-methoxyethyl)amino)-N-(4-((4-(3-(3-tert-butyl-1-p-tolyl-1H-pyrazol-5-yl)ureido)naphthalen-1-yloxy)methyl)pyridin-2-yl)acetamide] | < 10 nM | < 5000 nM | < 10 nM | < 10 nM | − (− <30%) | − (− <30%) |  | 
